# Test results from patent US20240368506A1, “Manufacturing a Non-Alcoholic Distilled Spirit and Functional Ingredient” (priority 2022, published 2024).
# Key:
# [1] = target: T1, MAO A (Homo sapiens, UniProt P21397); assay: MAO A inhibitory activity of Don Julio Añejo or 40% ethanol spiked with terpenes; type: biochemical; conditions: terpene at 0.5% (v/v) in tequila (40% ABV) and in 40% ethanol
# T1 sequence (P21397 1-527): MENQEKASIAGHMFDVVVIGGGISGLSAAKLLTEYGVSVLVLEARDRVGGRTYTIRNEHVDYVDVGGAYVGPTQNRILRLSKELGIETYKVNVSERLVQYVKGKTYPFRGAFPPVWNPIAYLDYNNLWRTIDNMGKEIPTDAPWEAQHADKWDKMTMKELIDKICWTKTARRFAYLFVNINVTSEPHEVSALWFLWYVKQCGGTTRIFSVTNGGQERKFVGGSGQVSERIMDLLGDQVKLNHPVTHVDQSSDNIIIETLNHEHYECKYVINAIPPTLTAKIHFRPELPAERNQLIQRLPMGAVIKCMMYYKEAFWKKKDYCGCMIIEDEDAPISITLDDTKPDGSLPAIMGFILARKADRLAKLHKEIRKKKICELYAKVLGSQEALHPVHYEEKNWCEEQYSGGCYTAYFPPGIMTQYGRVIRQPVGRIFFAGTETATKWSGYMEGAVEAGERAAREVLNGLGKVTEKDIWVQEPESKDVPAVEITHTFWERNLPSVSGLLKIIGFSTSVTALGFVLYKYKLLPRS
# Method: (§1) The effect terpenes on MAOI activity in tequila was evaluated in the experiment from Table 3. Terpenes were added to 40% ethanol and tequila (40% ABV) at 0.5%. (v/v) and assayed for MAO inhibitory activity.
# [2] = target: T2, MAO B (Homo sapiens, UniProt P27338); assay: MAO B inhibitory activity of Don Julio Añejo or 40% ethanol spiked with terpenes; type: biochemical; conditions: terpene at 0.5% (v/v) in tequila (40% ABV) and in 40% ethanol
# T2 sequence (P27338 1-520): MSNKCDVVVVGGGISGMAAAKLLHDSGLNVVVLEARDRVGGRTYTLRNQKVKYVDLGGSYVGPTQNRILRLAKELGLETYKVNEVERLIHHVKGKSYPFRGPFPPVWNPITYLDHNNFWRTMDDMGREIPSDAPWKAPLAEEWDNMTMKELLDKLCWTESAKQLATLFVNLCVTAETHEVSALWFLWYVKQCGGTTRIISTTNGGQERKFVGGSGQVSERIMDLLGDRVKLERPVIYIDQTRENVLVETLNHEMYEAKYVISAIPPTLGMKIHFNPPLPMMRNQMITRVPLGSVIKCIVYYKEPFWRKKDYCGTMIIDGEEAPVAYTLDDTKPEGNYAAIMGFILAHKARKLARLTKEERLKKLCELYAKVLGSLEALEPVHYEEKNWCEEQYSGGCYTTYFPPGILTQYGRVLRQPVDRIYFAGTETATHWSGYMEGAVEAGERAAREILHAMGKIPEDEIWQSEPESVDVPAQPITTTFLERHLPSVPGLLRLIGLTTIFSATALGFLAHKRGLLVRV
# Method: as §1
Molecule,Δ % Inhibition MAO A (DJA + terpene) − (ETOH + terpene) [1] [%],Δ % Inhibition MAO B (DJA + terpene) − (ETOH + terpene) [2] [%]
Geramol,4,9
C=C(C)[C@@H]1CCC2=CCC[C@@H](C)[C@]2(C)C1 [valencene],9,20
